Assays:
red blood cells [1] = experiment: Thaw and overall hemolysis, 10% glycerol reduced cryopreservation model (Example 3); type: cell-based, human; conditions: 10% (w/v) glycerol base
Protocol: The model used is a reduced glycerol cryopreservation system. 10% (w/v) glycerol is added to the unit prior to freezing at −80° C.
A single unit of packed red blood cells in ADSOL was obtained using standard blood banking protocols. […] From this red blood cell unit 50 ml of red cells was placed into each of 3 PVC freezing bags having a maximum volume of 150 ml. An equal volume (50 ml) was added to each of the bags composed of the above preservation solution and the experimental conditions. The final composition of the first bag was 10% (w/v) glycerol. […] The overall hemolysis was also determined.

red blood cells [2] = experiment: Thaw and overall hemolysis, glycerol-based cryoprotectant with biochemical stabilization (Example 4); type: cell-based, human; conditions: for % Hemolysis Thaw: frozen −80° C., thawed 37° C. water bath 10 minutes; for % Hemolysis Overall: overall hemolysis following the wash with 12%, 1.6% and 0.9% saline
Protocol: An aliquot of blood was transferred to a PVC storage bag, to which any experimental agents were added. Glycerol was then added until the desired final glycerol was achieved. This unit was frozen at −80° C., stored and thawed in a 37° C. water bath for 10 minutes. […] The values indicate the percent hemolysis in the thawed sample, the overall amount of hemolysis following the wash and the is percent of residual free hemoglobin in the final sample. Hemolysis is calculated as the ratio of free hemoglobin to the total hemoglobin content in the sample.

red blood cells [3] = experiment: Thaw hemolysis of red blood cells frozen at −80° C. with reduced glycerol (Example 1); type: cell-based, human; conditions: frozen at −80° C. 2-7 days, thawed 37° C. water bath 10 minutes; ratio of free to total hemoglobin
Protocol: A significant percentage of the hemolytic damage is shown to be reversed by the addition of a preservative solution containing adenine, glutamine, sodium chloride, mannitol, and dextrose, with the essential additive being dextrose, and final concentrations of 5 mM pentoxifylline and 25 μg/ml flurbiprofen in DMSO as a carrier.
Specifically, 50 ml of packed red blood cells was added to a PVC freezing bag with a maximum volume of 150 ml. Isotonic saline or preservative solution containing the additional biochemical reagents pentoxifylline and flurbiprofen was mixed with the red blood cells. A volume of Glycerolyte 57 (Fenwall) was added slowly until the final concentration of glycerol was achieved. The total volume of all additions was 50 ml, making the final […] of the red blood cell unit 100 ml. […] The levels of thaw hemolysis are shown below in TABLE 1.

red blood cells [4] = experiment: Thaw, overall and final hemolysis, glycerol based cryoprotectant with additives (Example 2); type: cell-based, human; conditions: additives in 20% glycerol; for Hemolysis (%) Overall: after glycerol removal by serial dilution with saline; for Hemolysis (%) Final (residual free hemoglobin): final residual free hemoglobin after wash; for Hemolysis (%) Thaw: frozen −80° C. 2-7 days, thawed 37° C. 10 minutes
Protocol: Fifty ml of packed red blood cells were added to a PVC freezing bag. Isotonic saline or preservative solution containing the additional biochemical reagents of interest was mixed with the red blood cells. The samples were treated as follows prior to freezing at −80° C.: • 1. 40% Glycerol • 2. 20% Glycerol • 3. Nicotinamide • 4.
A volume of Glycerolyte 57 (Fenwall) was added slowly until the final concentration of glycerol was achieved. The total volume of all additions was 50 ml, making the final volume of the red blood cell unit 100 ml. The PVC bags were frozen at −80° C. for 2-7 days and thawed by submersion in a 37° C. water bath for 10 minutes. The level of thaw hemolysis was determined as the ratio of free hemoglobin to total hemoglobin. Additionally, the glycerol was removed from the thawed red blood cell units by serial dilution with saline similar to blood bank protocols. The overall hemolysis and the final residual free hemoglobin levels were also determined.

red blood cells [5] = conditions: frozen storage at −80° C., glycerol washed out prior to transfusion; typical level; cited from earlier work
red blood cells [6] = test system: red blood cells
Text: Additionally, the glycerol was removed from the thawed red blood cell units by serial dilution with saline similar to blood bank protocols.

[7] = listed as 20% Glycerol with Control

SMILES | % Hemolysis (level of thaw hemolysis) (red blood cells [3]) [%] | Hemolysis (%) Overall (red blood cells [4]) [%] | Hemolysis (%) Final (residual free hemoglobin) (red blood cells [4]) [%] | Hemolysis (%) Thaw (red blood cells [4]) [%] | also measured
OCC(O)CO [10% Glycerol, glycerol] | – | – | – | – | % Hemolysis Overall (red blood cells [1]; after glycerol removal by serial dilution with saline): 93.62 ± 1.28%; % Hemolysis Thaw (red blood cells [1]; frozen −80° C. 2-7 days, thawed 37° C. 10 minutes): 61.71 ± 1.26%
OCC(O)CO [20% Glycerol, glycerol] | 35.29 | 41.48 | 1.09 | 9.39 | % Hemolysis Thaw (red blood cells [2]; [7]): 37.9%; % Hemolysis Overall (red blood cells [2]; [7]): 52.0%
OCC(O)CO [30% Glycerol, glycerol] | 3.53 | – | – | – | –
OCC(O)CO [40% Glycerol, glycerol] | 1.91 | 14.1 | 0.45 | 2.01 | hemolysis during the wash procedure (red blood cells [5]): 10-15%; % Hemolysis Thaw (red blood cells [2]): 1.9%; % Hemolysis Overall (red blood cells [2]): 6.1%
C[S+](C)[O-] [DMSO, dimethyl sulfoxide] | – | – | – | – | % Hemolysis (red blood cells [6]): 23.17 ± 0.58%
NC(=O)c1cccnc1 [Nicotinamide] | – | 22.93 | 0.43 | 8.13 | –

From US8895236B2, “Composition for cryopreservation comprising nicotinamide, glycerol and red blood cells” (priority 1998, dated 2014)
